Test results: patent US7316996B2, “Bisacyloxypropylcysteine conjugates and the use thereof” (GBF Gesellschaft fur Biotechnologische Forschung mbH, priority 2002, dated 2008)
“Also recorded” adds a separate entry of the source.

Assays:
[1] = test system: β-galactosidase-specific antibodies; assay: Serum β-gal-specific IgG (ELISA) after intranasal immunization with β-gal plus adjuvant; format: in vivo, BALB/c (H-2d) mice
Experimental: FIG. 3: Humoral responses which are stimulated after inoculating with MALP-2 derivatives and BPP-Cys-PEG, as mucosal adjuvants, at a dose of 0.05 μg per animal per immunization. The mice were immunized intranasally, on days 0, 7 and 14, with β-galactosidase (50 μg/dose) mixed with the above derivatives. On day 31 after the first immunization, serum samples were withdrawn and the concentrations of the β-galactosidase-specific antibodies were determined by means of ELISA. The results are depicted as end point titers.
(§1) 6-8-week-old female BALB/c (H-2d) mice (Harlan Winkelmann GmbH, Borchen, Germany) were used for the experiments. Groups of in each case 5 mice were administered 50 μg of β-galactosidase (β-gal) (Boehringer, Mannheim, Germany), either on its own or together with 0.5 μg of synthetic R-MALP-2, S-MALP-2 or BPP-Cys-PEG, as adjuvant, by the nasal route (25 μl) on days 1, 14 and 21. Serum samples were withdrawn on day 31 and stored at −20° C. until the β-gal-specific antibodies were determined. Nunc-Immuno MaxiSorp test plates containing 96 wells (Nunc, Roskilde, Denmark) were coated with 100 μl of β-gal (Boehringer, Mannheim, Germany), containing 5 μg/ml in 0.05 mol carbonate buffer (pH 8.2), per well. Serial double dilutions of the sera or washings in PBS containing 1% BSA and 0.05% Tween 20 were added (100 μl/well) and the plates were incubated at 37° C. for 2 hours. […]

[2] = test system: mouse peritoneal macrophages; assay: Nitrogen monoxide release assay (macrophage activation test); format: cell-based, C3H/HeJ mice; details: FIG. 1
Text: In principle, the activation of macrophages and monocytes can be measured by a large number of parameters, for example by means of the release of cytokines, chemokines or arachidonic acid metabolites in cultures of human monocytes or murine peritoneal macrophages. The test which is used here is based on the simultaneous stimulation of mouse peritoneal macrophages with interferon-γ and macrophage activator, e.g. BAP-Cys-PEG, so as to release nitrogen monoxide. (Reference: Muhlradt, P. F., and Frisch, M., 1994, “Purification and partial biochemical characterization of a Mycoplasma fermentans-derived substance that activates macrophages to release nitric oxide, tumor necrosis factor, and interleukin-6”, Infect. Immun. 62:3801-3807).
In brief, peritoneal macrophages from C3H/HeJ mice were used as the macrophage source. They were cultured in 96-well microtiter plates and stimulated simultaneously with rIFN-γ and a serial dilution of macrophage activator. Insofar as necessary, the macrophage activators were dissolved in 25 mM octylglucoside in the first dilution step and then diluted further with medium. After an incubating time of 45-48 hours, the nitrate was reduced with nitrate reductase and the starting substance nitrogen monoxide was determined, as the sum of nitrate and nitrite, using Griess' reagent. […]

[3] = test system: diabetic mice (C57BKLS/Bom-db); assay: Wound healing in diabetic mice; format: in vivo; details: 3×200 kU per animal on days 0, 2 and 5, in methylcellulose and 5% mouse serum; versus carrier control; FIG. 2
Text: As in the case of diabetic patients, wound healing is also disturbed in diabetic mice and proceeds more slowly than in wild-type mice. The diabetic mouse is therefore an established animal model for wound healing.
An area of approx. 4×4 cm in size was shaved on the backs of 20 diabetic mice ([…] C57BKLS/Bom-db) and this area was depilated with Veet two days later, after which the cream was carefully removed. After a further two days, the depilated backs of the mice were disinfected with Braunol. After anaesthesia had been initiated with isoflurane/air, an additional local anaesthesia was performed by means of the i.c. injection of 2% xylocaine directly into the site envisaged for the excision, and the skin was defatted with trichloroethylene. After that, scissors were used to cut out a circular skin wound of 1.3 cm in diameter in each of the mice. The wounds were closed with a transparent plaster (Hydrofilm, F. Hartmann) and dressing adhesive. An additional, larger plaster, having an aperture corresponding to the wound, making possible continued observation of the wound, was adhered on top of the first plaster.
3×200 kUnits of BPP-Cys-PEG, in methylcellulose and 5% mouse serum (as carrier), were administered, per animal, through the transparent plaster on days 0, 2 and 5.
Control mice were only given the carrier mixture. […]

spleen cells = assay: β-gal-specific T cell proliferation of spleen cells from immunized mice ([3H]-thymidine uptake); format: in vivo, BALB/c (H-2d) mice; details: spleen cells re-stimulated in vitro for 4 days with soluble β-gal; FIG. 6
Text: FIG. 6: β-gal-specific T cell proliferation responses of spleen cells from immunized mice. The cells were re-stimulated in vitro over 4 days with different concentrations of soluble β-gal. The results are depicted as ratios between the values (means of triple determinations) from stimulated and unstimulated samples (stimulation index).
The spleens were removed and taken together for analyzing the cell immune responses. The cells were propagated in RPMI 1640, additionally containing 10% calf serum, 100 U of penicillin/ml, 15 μg of streptomycin/ml, 5×10^−5 M 2-mercaptoethanol and 1 mM L-glutamine (GIBCO BRL, Karlsruhe, Germany), and stored at 37° C. in a moist atmosphere containing 5% CO2. […] These cells were then harvested on filter paper (Filtermat A; Wallac, Freiburg, Germany) using a cell harvester (Inotech, Wohlen, Switzerland) and the quantity of [^3H] thymidine taken up into the DNA of proliferating cells was determined using a scintillation counter (Wallac 1450, Micro-Trilux). The results were recorded as the ratios between the values (mean values, determined in triplicate) of stimulated and unstimulated samples (stimulation index).

β-gal-specific IgA = β-gal-specific IgA in lung and vaginal washings of intranasally immunized mice; format: in vivo, BALB/c (H-2d) mice; details: intranasal immunization with β-gal plus adjuvant
Experimental: as §1
Vaginal and lung washings were obtained by rinsing the organs with […] PBS which contained 50 mM EDTA, 0.1% BSA and 10 mM PMSF. […] In order to investigate the capacity of R-MALP-2, S-MALP-2 and BPP-Cys-PEG for stimulating effective humoral immune responses, the serum titers of β-gal-specific antibodies were determined in the inoculated mice.

For “bispalmitoyloxy-propylcysteine-PEG [BPP-Cys-PEG]”, the “antigen-specific (β-gal) serum IgG titers” value ([1]; intranasal, 50 μg β-gal with 0.5 μg adjuvant, serum on day 31, FIG. 3) was “rise more rapidly than those obtained using R-MALP-2”, the “effectiveness as a mucosal adjuvant compared with R-MALP-2 (overall conclusion)” value ([1]; summary of humoral and cellular responses, systemic and mucosal) was “at least as effective as, or even more effective than, R-MALP-2” and the “concentration achieving the same degree of macrophage activation, relative to TPP-Cys-PEG” value ([2]; comparison with TPP-Cys-PEG (PAM3-Cys-PEG)) was “approx. forty times lower”. The “potential for activating macrophages (nitrogen monoxide production), compared with PAM3-Cys-PEG” value ([2]; peritoneal macrophages co-stimulated with rIFN-γ, 45-48 hours) was “markedly higher potential for activating macrophages”, the wound healing [3] was “accelerated the wound healing significantly” and the “β-gal-specific T cell proliferation response (stimulation index)” value (spleen cells) was “effective proliferation response; also recorded: strongest T cell proliferation response”. The “β-gal-specific IgA in lung washings” value (β-gal-specific IgA; FIG. 4) was “significant increase in antigen-specific IgA antibodies” and the “β-gal-specific IgA in vaginal washings” value (β-gal-specific IgA; FIG. 5) was “significant concentrations of β-gal-specific IgA”.
